Where two headings read alike, the source gives them in different places.
Experiments:
[1] = test system: hen egg chorioallantoic membrane; assay: HET-CAM test (hen egg chorioallantoic membrane irritancy); format: in vivo, chicken; settings: 2 mL of 1 mg·mL^−1 solution, images 1 min after addition; for HET-CAM Score: graded from 0 (no irritation) to 3 (strong irritation)
Method: The HET-CAM is used for detecting ophthalmic irritancy in vivo[35]. For the HET-CAM, fertilized eggs were obtained from a local market in Korea and incubated for 10 days (37.5 °C and 45% humidity), by maintaining autorotation at 90°·h^−1 to ensure proper development and viability of the embryos. After incubation, the upper shell was cut in a circular shape, without damaging the inner membrane. Immediately after cutting, the inner membrane was carefully removed with forceps, to avoid injury to the blood vessels, and 2 mL of acyl myricetin solutions were placed on the CAM. Prior to the treatment, the solutions were prepared by mixing 1.9 mL of PBS and 100 μL of DMSO dissolving acyl myricetins, to prevent sedimentation of the crystalline solute. A mixture of PBS (1.9 mL) and DMSO (100 μL), and 1 M NaOH aqueous solution were used as negative and positive controls, respectively. Next, by turning an LED flashlight at the bottom of eggshell, CAM images were obtained 1 min after samples addition.
Based on the CAM images, the severity of any hemorrhage, blood-coagulation, and hyperemia was graded from 0 (no irritation) to 3 (strong irritation) according to a previously developed scoring method. We analyzed the CAM images using ImageJ (http://rsb.info.nih.gov/ij/) to prevent arbitrary judgments with respect to the previous scoring method; then we selected blood vessels in the CAM images, and measured hemorrhage, blood-coagulation, and hyperemia as follows. First, the CAM images were loaded individually into ImageJ, cropped to a fixed size to exclude the shell, and converted to grayscale. The CAM images, grayscaled with red stack, were adjusted using the MidGrey method, and the area fraction (%Area) values of black pixels in the adjusted CAM images were measured and recorded.

[2] = Stability assessment against oxidation in aqueous solution by UV/Vis absorbance spectra; format: physicochemical; settings: PBS pH 7, 37 °C; for decay rate constant k: absorbance at 376 nm, exponential decay-plateau fitting
Method: To assess their stability in an aqueous environment at pH 7 and 37 °C, UV/Vis-light absorbance spectra of the separated acyl […] obtained using the Synergy H1 (BioTek Instruments Inc.; measuring interval of 3 nm, 25 °C), at a wavelength-range of 250-600 nm[34]. One hundred microliters of the separated esters (20 μg·mL^-1), dissolved in DMSO, were mixed in a micro-tube (2 mL) with 1.9 mL of phosphate buffered saline (PBS), pre-adjusted to pH 7 with 1 M HCl aqueous solution. After covering with a lid, the mixture was immediately incubated for 18 h in a heating shaking drybath (S08040; Thermo Scientific) at 37 °C, shaken at 700 rpm. […] The amount of non-oxidized acyl myricetin was determined, based on the absorbance ( abs ) at a wavelength of 376 nm at incubation time ( t ). An exponential decay-plateau fitting method was employed to determine decay rate constant values ( k , s^-1) for the acyl […] follows: ln(abs/abs0)=-[…]) where abs0 is the absorbance at the initiation of incubation and tp is the time in which the left side ( -kt ) reaches the plateau constant ( p ). The non-oxidized proportion of the esters, after all the incubation, was described as e^p . Monitoring the shift of specific peaks in the spectra for the acyl […] could be important for application in food and cosmetics because this can indirectly indicate color changes in the product, which would be unwelcomed to most of the customers. Therefore, the center of gravity in the spectra of the M esters was determined as follows, in order to monitor the shift of specific peaks Centerofgravitycg=∑(absiλi)/∑(absi) where absi is the absorbance at a specific wavelength ( λi , 300-400 nm). Based on the cg estimated during the incubations, the cg shifting rate ( k1 ) was determined using the two segment linear fitting curves as follows: […]1=[…] intercepts of linear curves for the left and right sides, respectively, t1 is the time that the left side ( k1t+cg1 ) takes to become the right side ( k2t+cg2 ), and k2 is an inclination of curve toward the right side.

[3] = test system: PC-12 cells; assay: Neutral red uptake (NRU) cytotoxicity assay; format: cell-based; settings: 12 h incubation
Method: (§1) PC-12 cells, obtained from Korean Cell Line Bank (KCLB, Seoul, Korea), were cultured in media containing 84% (v/v) RPMI 1640 medium, 10% (v/v) heat-inactivated horse serum, 5% (v/v) heat-inactivated FBS, and 1% (v/v) antibiotic-antimycotic (100×) solution, under humidified conditions (37 °C, 5% CO2). The culture medium was refreshed every other day. Prior to further experiments, the viability of the cells in passages 1-5 was assessed using the trypan blue exclusion test. Harvested PC-12 cells (~ 80% confluency per well) were seeded into 96-well plates coated with type I-collagen and grown in the culture media for one day (37 °C, 5% CO2). Cells were treated with media containing the acyl […] incubated for 12 h. The media were aspirated, and cells were then incubated for 2 h with 0.33% (w/v) neutral red dissolved in the media. After the incubation, the neutral red media were carefully withdrawn, and cells were rinsed twice with PBS at 37 °C and dried for 1 h. Next, neutral red contained in the dried cells was extracted and solubilized with a solution of 50% (v/v) ethanol, 49% (v/v) DDW, and 1% (v/v) acetic acid, by incubating for 10 min. Absorbance of the neutral red-containing solution at 540 nm was recoded using the Synergy H1. Cell viability was determined based on the absorbance of treated cells compared to that of untreated cells (without acyl […]).

[4] = Neutral red uptake (NRU) cytotoxicity assay; format: cell-based; settings: rat, PC-12 cells, 12 h incubation
Method: as §1

[5] = test system: differentiated PC-12 cells; assay: Acetylcholine release assay; format: cell-based; settings: 12 h incubation, read-out: EC50 (inhibition of acetylcholine release)
Method: PC-12 cells, obtained from Korean Cell Line Bank (KCLB, Seoul, Korea), were cultured in media containing 84% (v/v) RPMI 1640 medium, 10% (v/v) heat-inactivated horse serum, 5% (v/v) heat-inactivated FBS, and 1% (v/v) antibiotic-antimycotic (100×) solution, under humidified conditions (37 °C, 5% CO2). The culture medium was refreshed every other day. Prior to further experiments, the viability of the cells in passages 1-5 was assessed using the trypan blue exclusion test. Harvested PC-12 cells were seeded into 24-well plates coated with poly-D-[…] × 10^5 cells per well) and grown in the culture media for one day (37 °C, 5% CO2). […] GIBCO/Invitrogen) and incubated for 5 days. Then, the media were replaced with the low serum medium containing the acyl […] incubated for 12 h. Next, the acetylcholine released from the cells into the medium was quantified using an Acetylcholine Assay Kit (Fluorometric; Cell Biolabs, Inc., CA, USA) and the Synergy H1 (λex/λem, 530 nm/600 nm). Subsequently, using the Kit, the amount of released acetylcholine was determined by subtracting the basal level signal from the signal for sample-treated cells.

[6] = Determination of 1-octanol/water partition coefficients (logP); format: physicochemical; settings: 1-octanol/water (DDW); 1-octanol/DDW, 25 °C
Method: Values for logP were determined to quantify the lipophilicity or hydrophilicity of the separated acyl myricetins, using the previously reported method with slight modifications. After the addition of 1-octanol (500 μL) into 2 mL micro-tubes containing 1 mg of the separated acyl myricetins, the micro-tubes were vortexed for 1 min, followed by sonication (bath-type) for 5 min, and then 500 μL of DDW was added to the tubes. Next, the mixed solutions in the tubes were vortexed again for 5 min and phase-separated by centrifugation (3000 relative centrifugal force for 10 min at 25 °C). The 40 μL of upper layer (1-octanol) and 100 μL of lower layer (DDW) were collected and diluted with 1.96 mL of 1-octanol and 100 μL of DMSO, respectively. The solutes dissolved in the upper and lower layers were quantified based on the standard curves obtained from the UV/Vis-light absorbance spectra (250‒600 nm) using a microplate reader (Synergy H1; BioTek Instruments Inc., VT, USA; measuring interval of 3 nm, at 25 °C). Finally, the logP values were calculated as log(coctanol/cDDW), where coctanol and cDDW are the concentrations of the solutes in the upper and lower layers, respectively.

Row | Compound | HET-CAM Description [1] | HET-CAM Score [1] | decay rate constant k [2] [s⁻¹] | CC50 [3] [µM] | CC50 at 12 h [4] [µM] | EC50 ([5]; Rattus norvegicus) [µM] | logP at 5 min [6] | k value fold lower than that of myricetin [2] | times by which the myricetin cg shift is faster than that of the compound [2] | EC50 [5] [µM]
1 | [Na+].[OH-] [1 M NaOH, NaOH, reference compound] | Severe irritant | 3 | – | – | – | – | – | – | – | –
2 | O=c1c(O)c(-c2cc(O)c(O)c(O)c2)oc2cc(O)cc(O)c12 [M, myricetin] | Non irritant | 0 | 0.00037 | 66.4 ± 10.9 | 65.4 | 5.36 ± 0.2 | 1.34 ± 0.1 | – | – | –
3 | dipropionyl-myricetin [MP2] | Non irritant | 0 | 0.00013 | – | – | – | – | 2.7 fold | 5.1 fold | 3.58 ± 0.75
4 | monooctanoyl-myricetin [MO1] | Non irritant | 0 | 0.00012 | – | – | – | – | ~ 3.1 fold | ~ 2.3 fold | 2.51 ± 0.89
5 | monopropionyl-myricetin [MP1] | Non irritant | 0 | 0.0002 | – | – | – | – | ~ 1.9 fold | ~ 2.4 fold | 3.84 ± 1.08
